Active and inactive are the calls of the source. The rule behind the calls is not given here.
Columns and labels:
[1] = target: NAD-dependent protein deacylase sirtuin-5, mitochondrial (Homo sapiens, UniProt Q9NXA8); assay: Inhibition of recombinant human SIRT5 measured after 30 mins by fluorescence microplate reader assay
[2] = target: T1, Histone deacetylase 7 (Homo sapiens, UniProt Q8WUI4); assay: Inhibition of HDAC7 (unknown origin) measured after 30 mins by fluorescence microplate reader assay
T1 sequence (Q8WUI4 whole entry): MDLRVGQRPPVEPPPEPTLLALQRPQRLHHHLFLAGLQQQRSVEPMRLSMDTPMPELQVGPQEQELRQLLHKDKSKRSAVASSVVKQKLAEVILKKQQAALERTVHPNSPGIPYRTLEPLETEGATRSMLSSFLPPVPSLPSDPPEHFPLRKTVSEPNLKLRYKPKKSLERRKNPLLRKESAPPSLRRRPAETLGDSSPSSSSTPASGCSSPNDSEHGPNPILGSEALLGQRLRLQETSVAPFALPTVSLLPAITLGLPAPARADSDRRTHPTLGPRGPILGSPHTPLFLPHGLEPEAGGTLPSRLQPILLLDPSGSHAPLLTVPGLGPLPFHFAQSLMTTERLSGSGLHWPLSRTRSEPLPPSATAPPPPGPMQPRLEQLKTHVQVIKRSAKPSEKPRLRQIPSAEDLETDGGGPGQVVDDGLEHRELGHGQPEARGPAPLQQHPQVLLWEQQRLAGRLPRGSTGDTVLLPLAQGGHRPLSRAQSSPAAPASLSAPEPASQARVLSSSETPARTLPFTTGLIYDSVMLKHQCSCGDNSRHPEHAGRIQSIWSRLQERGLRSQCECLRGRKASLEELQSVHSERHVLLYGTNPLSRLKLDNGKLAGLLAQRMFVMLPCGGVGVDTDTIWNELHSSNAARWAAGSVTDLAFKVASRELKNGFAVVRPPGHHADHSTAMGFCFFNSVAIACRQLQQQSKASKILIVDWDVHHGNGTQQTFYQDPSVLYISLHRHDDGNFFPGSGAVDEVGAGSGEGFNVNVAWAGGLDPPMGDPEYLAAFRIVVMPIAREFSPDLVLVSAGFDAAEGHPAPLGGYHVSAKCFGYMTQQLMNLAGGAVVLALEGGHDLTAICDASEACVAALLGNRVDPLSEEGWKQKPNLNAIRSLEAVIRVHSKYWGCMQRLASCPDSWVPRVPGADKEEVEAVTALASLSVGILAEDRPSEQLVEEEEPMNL

[3] = target: CDK4/Cyclin D3 (Homo sapiens) (UniProt P11802+P30281); conditions: dose 100.0 nM, time 10.0 min
[4] = tested on: HeLa; assay: Antiproliferative activity against human HeLa cells assessed as cell growth inhibition measured after 48 hrs by CCK8 assay; format: functional, cell-based
[5] = target: Histone deacetylase 9 (Homo sapiens, UniProt Q9UKV0); assay: Inhibition of recombinant human HDAC9 measured after 30 mins by fluorescence microplate reader assay
[6] = target: CDK4/Cyclin D3 (Homo sapiens, UniProt P11802); assay: Inhibition of full length human CDK4 (1 to 303 residues)/N-terminal GST-fusion tagged CyclinD3 (1 to 292 residues) expressed in baculovirus expression system preincubated for 10 mins followed by substrate and ATP addition by mobility shift assay
[7] = tested on: A549; assay: Induction of apoptosis in human A549 cells assessed as increase in sum of early and late apoptotic cells at 2.5 to 10 uM measured after 48 hrs by Annexin-V/FITC-propidium iodide staining based flow cytometry analysis; format: functional, cell-based; conditions: dose 2.5-10 µM
[8] = tested on: A549; assay: Antiproliferative activity against human A549 cells assessed as cell growth inhibition measured after 48 hrs by CCK8 assay; format: functional, cell-based; conditions: A549, 48 h
[9] = target: NAD-dependent protein deacetylase sirtuin-2 (Homo sapiens, UniProt Q8IXJ6); assay: Inhibition of recombinant human SIRT2 measured after 30 mins by fluorescence microplate reader assay
[10] = target: T2, Protein deacetylase HDAC6 (Homo sapiens) (UniProt Q9UBN7); assay: Inhibition of HDAC6 in human MCF7 cells assessed as accumulation of acetylation of H3 at 1 to 10 uM measured after 48 hrs by Western blot analysis; format: cell-based; conditions: dose 1-10 µM
T2 sequence (whole entry): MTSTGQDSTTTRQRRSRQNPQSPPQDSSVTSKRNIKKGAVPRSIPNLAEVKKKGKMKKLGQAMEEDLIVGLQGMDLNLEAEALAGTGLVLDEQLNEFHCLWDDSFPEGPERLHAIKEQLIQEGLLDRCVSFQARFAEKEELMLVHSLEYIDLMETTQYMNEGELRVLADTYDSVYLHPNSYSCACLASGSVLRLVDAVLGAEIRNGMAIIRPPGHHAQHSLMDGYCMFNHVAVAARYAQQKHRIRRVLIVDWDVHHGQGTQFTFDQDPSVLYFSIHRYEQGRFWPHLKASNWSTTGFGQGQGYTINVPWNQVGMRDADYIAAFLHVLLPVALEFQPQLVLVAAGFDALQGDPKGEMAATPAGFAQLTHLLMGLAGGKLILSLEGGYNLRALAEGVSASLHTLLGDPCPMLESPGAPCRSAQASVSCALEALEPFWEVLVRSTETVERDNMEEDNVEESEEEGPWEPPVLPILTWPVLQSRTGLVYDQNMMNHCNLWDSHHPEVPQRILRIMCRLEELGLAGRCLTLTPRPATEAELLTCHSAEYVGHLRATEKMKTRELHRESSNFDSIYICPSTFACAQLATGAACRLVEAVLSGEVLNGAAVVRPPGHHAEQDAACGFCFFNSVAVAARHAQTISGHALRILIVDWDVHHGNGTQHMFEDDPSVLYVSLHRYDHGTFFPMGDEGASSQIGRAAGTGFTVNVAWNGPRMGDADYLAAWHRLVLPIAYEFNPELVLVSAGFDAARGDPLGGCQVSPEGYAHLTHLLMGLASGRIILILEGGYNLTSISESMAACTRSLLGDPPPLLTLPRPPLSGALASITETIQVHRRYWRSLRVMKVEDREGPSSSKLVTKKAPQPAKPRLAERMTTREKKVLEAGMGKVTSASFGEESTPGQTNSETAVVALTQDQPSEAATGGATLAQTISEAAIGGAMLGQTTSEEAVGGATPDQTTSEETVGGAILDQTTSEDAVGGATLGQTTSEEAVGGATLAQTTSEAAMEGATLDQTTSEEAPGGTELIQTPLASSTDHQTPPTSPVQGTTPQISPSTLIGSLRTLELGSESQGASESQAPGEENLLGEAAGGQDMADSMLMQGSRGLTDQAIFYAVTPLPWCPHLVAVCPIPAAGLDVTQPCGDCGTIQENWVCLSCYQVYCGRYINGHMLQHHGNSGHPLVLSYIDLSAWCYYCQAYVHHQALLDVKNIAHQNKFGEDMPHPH

[11] = target: Histone deacetylase 5 (Homo sapiens, UniProt Q9UQL6); assay: Inhibition of HDAC5 (unknown origin) measured after 30 mins by fluorescence microplate reader assay
[12] = tested on: K562; assay: Antiproliferative activity against human K562 cells assessed as cell growth inhibition measured after 48 hrs by CCK8 assay; format: functional, cell-based; conditions: K562, 48 h
[13] = tested on: HepG2; assay: Antiproliferative activity against human HepG2 cells assessed as cell growth inhibition measured after 48 hrs by CCK8 assay; format: functional, cell-based; conditions: HepG2, 48 h

NAD-dependent protein deacylase sirtuin-5, mitochondrial, sequence (Q9NXA8 whole entry): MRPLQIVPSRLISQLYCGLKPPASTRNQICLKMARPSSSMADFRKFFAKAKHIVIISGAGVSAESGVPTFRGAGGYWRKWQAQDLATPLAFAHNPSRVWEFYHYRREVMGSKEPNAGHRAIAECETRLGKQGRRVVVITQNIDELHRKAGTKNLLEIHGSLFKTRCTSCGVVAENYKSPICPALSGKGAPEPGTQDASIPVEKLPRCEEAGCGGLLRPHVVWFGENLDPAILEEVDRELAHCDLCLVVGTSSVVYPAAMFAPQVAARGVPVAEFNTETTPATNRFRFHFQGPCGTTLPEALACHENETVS
Histone deacetylase 5, sequence (Q9UQL6 whole entry): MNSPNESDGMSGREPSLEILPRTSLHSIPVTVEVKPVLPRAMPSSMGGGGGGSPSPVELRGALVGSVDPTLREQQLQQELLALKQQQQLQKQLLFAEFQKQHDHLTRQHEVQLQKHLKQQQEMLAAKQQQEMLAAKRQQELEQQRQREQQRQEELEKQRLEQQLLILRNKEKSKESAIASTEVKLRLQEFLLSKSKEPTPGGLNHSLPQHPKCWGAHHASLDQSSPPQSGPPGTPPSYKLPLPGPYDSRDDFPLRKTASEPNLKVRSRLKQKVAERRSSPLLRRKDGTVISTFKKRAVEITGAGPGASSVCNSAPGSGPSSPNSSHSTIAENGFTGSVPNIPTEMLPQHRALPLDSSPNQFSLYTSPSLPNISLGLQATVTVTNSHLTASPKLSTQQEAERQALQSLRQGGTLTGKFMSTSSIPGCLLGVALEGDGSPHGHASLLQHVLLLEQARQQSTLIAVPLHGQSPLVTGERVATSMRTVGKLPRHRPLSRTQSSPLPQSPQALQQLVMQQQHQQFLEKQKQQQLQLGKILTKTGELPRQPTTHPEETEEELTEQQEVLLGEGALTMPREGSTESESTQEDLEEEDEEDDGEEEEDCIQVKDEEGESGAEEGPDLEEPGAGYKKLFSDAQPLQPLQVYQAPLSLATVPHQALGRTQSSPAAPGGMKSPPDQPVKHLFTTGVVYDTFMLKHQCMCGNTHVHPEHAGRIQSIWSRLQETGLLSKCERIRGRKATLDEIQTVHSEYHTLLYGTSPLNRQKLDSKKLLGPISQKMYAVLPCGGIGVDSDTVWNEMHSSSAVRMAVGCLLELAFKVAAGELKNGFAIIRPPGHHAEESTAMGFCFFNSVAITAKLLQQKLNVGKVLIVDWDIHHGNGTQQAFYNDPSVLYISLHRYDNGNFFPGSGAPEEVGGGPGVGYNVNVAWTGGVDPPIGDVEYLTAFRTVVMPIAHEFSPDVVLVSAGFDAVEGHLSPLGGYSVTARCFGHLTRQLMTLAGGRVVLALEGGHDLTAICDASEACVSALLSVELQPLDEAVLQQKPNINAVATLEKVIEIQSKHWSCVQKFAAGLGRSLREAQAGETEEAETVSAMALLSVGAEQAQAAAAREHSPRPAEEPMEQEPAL
Histone deacetylase 9, sequence (Q9UKV0 whole entry, the tested form may be a part): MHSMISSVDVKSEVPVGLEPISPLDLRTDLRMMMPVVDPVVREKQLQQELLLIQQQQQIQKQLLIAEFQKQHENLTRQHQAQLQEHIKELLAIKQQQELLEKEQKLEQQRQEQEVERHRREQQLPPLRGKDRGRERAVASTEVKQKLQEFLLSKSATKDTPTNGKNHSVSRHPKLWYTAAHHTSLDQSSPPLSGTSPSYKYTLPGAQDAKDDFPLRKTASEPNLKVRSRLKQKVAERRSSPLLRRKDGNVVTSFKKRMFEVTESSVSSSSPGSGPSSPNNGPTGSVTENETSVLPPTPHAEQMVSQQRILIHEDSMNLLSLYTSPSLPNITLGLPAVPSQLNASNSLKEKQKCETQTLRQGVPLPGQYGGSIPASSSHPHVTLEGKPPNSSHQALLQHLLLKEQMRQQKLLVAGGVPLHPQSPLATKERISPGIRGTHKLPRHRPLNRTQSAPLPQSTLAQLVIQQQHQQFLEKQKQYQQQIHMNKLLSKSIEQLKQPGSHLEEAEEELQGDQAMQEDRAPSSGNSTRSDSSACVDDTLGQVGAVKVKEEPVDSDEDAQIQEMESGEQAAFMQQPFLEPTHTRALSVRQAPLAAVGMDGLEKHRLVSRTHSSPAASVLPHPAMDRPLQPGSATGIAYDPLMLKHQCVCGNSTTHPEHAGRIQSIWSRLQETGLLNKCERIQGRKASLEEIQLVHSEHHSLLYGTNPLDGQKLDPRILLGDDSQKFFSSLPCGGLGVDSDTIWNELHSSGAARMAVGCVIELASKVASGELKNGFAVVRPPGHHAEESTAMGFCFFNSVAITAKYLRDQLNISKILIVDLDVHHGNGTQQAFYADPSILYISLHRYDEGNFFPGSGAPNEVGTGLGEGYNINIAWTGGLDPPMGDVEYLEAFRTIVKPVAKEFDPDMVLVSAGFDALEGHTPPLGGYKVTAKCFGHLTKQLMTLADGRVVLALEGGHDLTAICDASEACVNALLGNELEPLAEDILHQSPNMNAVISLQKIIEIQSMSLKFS
NAD-dependent protein deacetylase sirtuin-2, sequence (Q8IXJ6 whole entry): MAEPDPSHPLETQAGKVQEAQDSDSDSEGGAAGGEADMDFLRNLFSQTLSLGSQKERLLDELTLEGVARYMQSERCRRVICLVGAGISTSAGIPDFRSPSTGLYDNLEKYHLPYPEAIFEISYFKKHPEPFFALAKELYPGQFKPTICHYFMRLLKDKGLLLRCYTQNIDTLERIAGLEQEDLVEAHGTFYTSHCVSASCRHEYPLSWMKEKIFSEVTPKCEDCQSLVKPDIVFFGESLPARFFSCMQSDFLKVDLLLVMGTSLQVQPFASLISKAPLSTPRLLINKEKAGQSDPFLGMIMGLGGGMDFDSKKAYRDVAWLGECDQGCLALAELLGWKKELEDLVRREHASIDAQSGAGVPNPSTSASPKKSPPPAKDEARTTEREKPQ
CDK4/Cyclin D3, sequence (P11802 whole entry, the tested form may be a part): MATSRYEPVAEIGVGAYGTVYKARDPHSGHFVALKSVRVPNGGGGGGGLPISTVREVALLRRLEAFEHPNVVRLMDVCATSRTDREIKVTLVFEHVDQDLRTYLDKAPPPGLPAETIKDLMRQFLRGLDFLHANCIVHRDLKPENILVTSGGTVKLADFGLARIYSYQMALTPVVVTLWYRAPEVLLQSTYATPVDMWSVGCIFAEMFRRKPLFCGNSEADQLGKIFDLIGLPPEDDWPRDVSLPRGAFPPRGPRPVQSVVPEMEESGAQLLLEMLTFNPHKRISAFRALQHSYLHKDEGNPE
CDK4/Cyclin D3, sequence (P30281 whole entry, further chain, the tested form may be a part): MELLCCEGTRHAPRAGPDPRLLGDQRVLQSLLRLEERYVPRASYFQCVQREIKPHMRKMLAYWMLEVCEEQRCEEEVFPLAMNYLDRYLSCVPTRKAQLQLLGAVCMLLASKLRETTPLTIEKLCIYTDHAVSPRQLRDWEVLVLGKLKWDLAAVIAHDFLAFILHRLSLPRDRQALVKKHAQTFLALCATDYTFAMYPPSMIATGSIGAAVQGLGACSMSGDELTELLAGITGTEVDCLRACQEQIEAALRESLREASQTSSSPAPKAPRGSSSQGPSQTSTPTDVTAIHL

SMILES | IC50 [1] | IC50 [2] | inhibition [3] | IC50 [4] | IC50 [5] | IC50 [6] | Activity [7] | IC50 [8] | IC50 [9] | inhibition [10] | IC50 [11] | IC50 [12] | IC50 [13]
O=C(CCCO/N=C1/C(=C2/C(=O)Nc3ccccc32)Nc2ccccc21)NO | > 100 µM | > 5 µM | 30.2% | 0.8 µM | > 5 µM | 0.276 µM | Active | 2 µM | > 100 µM | inactive | > 5 µM | 2.5 µM | 5.7 µM
C#CCN1C(=O)/C(=C2\Nc3ccccc3\C2=N/OCCCC(=O)NO)c2ccccc21 | – | > 5 µM | 3.9% | – | – | > 1 µM | – | – | – | – | – | – | –
O=C(O)CCCO/N=C1/C(=C2/C(=O)Nc3ccccc32)Nc2ccccc21 | > 100 µM | > 5 µM | – | > 10 µM | > 5 µM | – | – | > 10 µM | > 100 µM | – | > 5 µM | > 10 µM | > 10 µM

Source: ChEMBL document CHEMBL4842385, “Indirubin Derivatives as Dual Inhibitors Targeting Cyclin-Dependent Kinase and Histone Deacetylase for Treating Cancer” (J Med Chem, 2021)
